# Test results reported in US20210198277A1, “AMINE-SUBSTITUTED ARYL OR HETEROARYL COMPOUNDS” (Epizyme, Inc., priority 2016, published 2021).
# Target: T1, EHMT2 (Homo sapiens, UniProt Q96KQ7)
# T1 construct: host or cells: MDA-MB-231
# T1 sequence (Q96KQ7 1-1210): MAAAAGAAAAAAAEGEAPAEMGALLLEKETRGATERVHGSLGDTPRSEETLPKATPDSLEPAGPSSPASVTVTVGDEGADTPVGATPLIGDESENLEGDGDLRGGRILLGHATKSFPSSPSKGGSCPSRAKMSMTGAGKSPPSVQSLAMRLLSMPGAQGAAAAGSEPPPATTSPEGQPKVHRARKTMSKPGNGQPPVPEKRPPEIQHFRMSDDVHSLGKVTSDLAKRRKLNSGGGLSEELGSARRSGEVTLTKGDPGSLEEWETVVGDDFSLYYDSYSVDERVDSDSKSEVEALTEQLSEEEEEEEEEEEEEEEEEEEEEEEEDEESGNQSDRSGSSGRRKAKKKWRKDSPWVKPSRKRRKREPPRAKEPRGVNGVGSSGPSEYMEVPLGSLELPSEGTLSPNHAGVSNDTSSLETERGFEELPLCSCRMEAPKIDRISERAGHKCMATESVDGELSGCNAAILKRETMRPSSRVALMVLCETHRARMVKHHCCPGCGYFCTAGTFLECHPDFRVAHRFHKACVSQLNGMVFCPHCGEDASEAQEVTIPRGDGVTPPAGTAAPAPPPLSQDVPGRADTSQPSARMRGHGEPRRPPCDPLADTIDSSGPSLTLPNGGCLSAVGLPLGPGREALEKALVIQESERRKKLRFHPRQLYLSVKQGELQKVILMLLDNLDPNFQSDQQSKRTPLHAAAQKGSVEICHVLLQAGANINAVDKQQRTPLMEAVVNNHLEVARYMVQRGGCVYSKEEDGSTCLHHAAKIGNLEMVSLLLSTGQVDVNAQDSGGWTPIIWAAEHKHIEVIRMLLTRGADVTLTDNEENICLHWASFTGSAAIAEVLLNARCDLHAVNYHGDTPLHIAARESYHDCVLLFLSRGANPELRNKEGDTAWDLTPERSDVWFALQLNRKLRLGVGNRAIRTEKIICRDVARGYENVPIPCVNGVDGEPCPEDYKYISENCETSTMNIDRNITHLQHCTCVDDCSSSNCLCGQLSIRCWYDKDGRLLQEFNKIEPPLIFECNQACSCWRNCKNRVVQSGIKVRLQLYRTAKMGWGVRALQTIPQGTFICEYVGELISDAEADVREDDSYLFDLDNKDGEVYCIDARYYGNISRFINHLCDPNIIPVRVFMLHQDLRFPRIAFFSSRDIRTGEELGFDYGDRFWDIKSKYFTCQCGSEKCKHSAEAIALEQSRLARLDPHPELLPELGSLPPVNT
# Experiment: MDA-MB-231 H3K9me2 in-cell Western assay (EHMT2 ICW)
# Type: cell-based
# Conditions: Table III; MDA-MB-231 H3K9me2 in-cell Western; read-out: EHMT2 ICW (IC50 μM)
# How it was run: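 For 48 h at 37 °C, breast cancer MDA-MB-231 cells were incubated with compound, then fixed and immunostained for H3K9me2, with DRAQ5 used for normalisation. Each well's signal ratio yielded percent inhibition, and IC50 values were derived by fitting a four-parameter curve.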
row,SMILES,IC50
1,"CNc1cc(N2CCCC2)nc(Nc2ccc(OC)c(OCCCN3CCCC3)c2)n1 [Compound 450, N^2-(4-methoxy-3-(3-(pyrrolidin-1-yl)propoxy)phenyl)-N^4-methyl-6-(pyrrolidin-1-yl)pyrimidine-2,4-diamine]",> 10 µM
2,"CNc1cc(C)nc(Nc2ccc(OC)c(OCC3CCCO3)c2)n1 (stereo not drawn) [Compound 452, N^2-(4-methoxy-3-((tetrahydrofuran-2-yl)methoxy)phenyl)-N^4,6-dimethylpyrimidine-2,4-diamine]",> 10 µM
3,CNc1ccnc(Nc2ccc(OC)c(OCCCN3CCC4(COC4)C3)c2)n1 [Compound 284],> 10 µM
4,"COc1ccc(Nc2nc(C)cc(O)n2)cc1OCCCN1CCCC1 [Compound 447, 2-((4-methoxy-3-(3-(pyrrolidin-1-yl)propoxy)phenyl)amino)-6-methylpyrimidin-4-ol]",> 10 µM
5,"CNc1ccnc(Nc2ccc(C3CC3)c(OCCCN3CCCC3)c2)n1 [Compound 314, N^2-(4-cyclopropyl-3-(3-(pyrrolidin-1-yl)propoxy)phenyl)-N^4-methylpyrimidine-2,4-diamine]",1 to 10 µM
6,CNc1ccnc(Nc2cccc(N3CCC(N)C3)c2)n1 (stereo not drawn) [Compound 297],> 10 µM
7,"CNc1ccnc(Nc2ccc(OC)c(OCCCN3CC(C)C3)c2)n1 [Compound 423, N^2-(4-methoxy-3-(3-(3-methylazetidin-1-yl)propoxy)phenyl)-N^4-methylpyrimidine-2,4-diamine]",1 to 10 µM
8,"CNc1ccnc(Nc2ccc(OC)c(OCCCN3CCC(C#N)C3)c2)n1 (stereo not drawn) [Compound 287, 1-(3-(2-methoxy-5-((4-(methylamino)pyrimidin-2-yl)amino)phenoxy)propyl)pyrrolidine-3-carbonitrile]",> 10 µM
9,"CNc1cc(Nc2ccc(OC)c(OCCCN3CCCC3)c2)ncc1F [Compound 272, 5-fluoro-N^2-(4-methoxy-3-(3-(pyrrolidin-1-yl)propoxy)phenyl)-N^4-methylpyridine-2,4-diamine]",1 to 10 µM
10,"CNc1ccnc(Nc2ccc(OC)c(OCCOC3CCCC3)c2)n1 [Compound 440, N^2-(3-(2-(cyclopentyloxy)ethoxy)-4-methoxyphenyl)-N^4-methylpyrimidine-2,4-diamine]",> 10 µM
11,CNc1ccnc(N[C@@H]2CCC[C@H](OCCCN3CCCC3)C2)n1 [Compound 427],> 10 µM

# Now from value to compound:
row,IC50,SMILES
1,0.1 to 1 µM,"CNc1cc(C)nc(Nc2ccc(OC)c(OCC3CCN(C4COC4)C3)c2)n1 (stereo not drawn) [Compound 449, N^2-(4-methoxy-3-((1-(oxetan-3-yl)pyrrolidin-3-yl)methoxy)phenyl)-N^4,6-dimethylpyrimidine-2,4-diamine]"
2,0.1 to 1 µM,"CNc1ccnc(Nc2ccc(OC)c(OC[C@H]3CN(C)C[C@@H]3C)c2)n1 (single isomer, unassigned) [Compound 439]"
3,0.1 to 1 µM,"CNc1cc(C2CC2)nc(Nc2ccc(OC)c(OCCCN3CCCC3)c2)n1 [Compound 320, 6-cyclopropyl-N^2-(4-methoxy-3-(3-(pyrrolidin-1-yl)propoxy)phenyl)-N^4-methylpyrimidine-2,4-diamine]"
4,1 to 10 µM,COc1ccc(Nc2nccc(NCC3CC(C)(C)NC(C)(C)C3)n2)cc1OCCCN1CCCC1 [Compound 278]
5,1 to 10 µM,"CCN(CC)CCCOc1cc(Nc2nccc(NC)n2)ccc1OC [Compound 280, N^2-(3-(3-(diethylamino)propoxy)-4-methoxyphenyl)-N^4-methylpyrimidine-2,4-diamine]"
6,0.1 to 1 µM,"CNc1ccnc(Nc2ccc(OC)c(OCCCN3CCC(OC)C3)c2)n1 (stereo not drawn) [Compound 283, N^2-(4-methoxy-3-(3-(3-methoxypyrrolidin-1-yl)propoxy)phenyl)-N^4-methylpyrimidine-2,4-diamine]"
7,0.1 to 1 µM,"CNc1cc(C)nc(Nc2cc(OCCCN3CCCC3)c(OC)cn2)c1 [Compound 307, N^2-(5-methoxy-4-(3-(pyrrolidin-1-yl)propoxy)pyridin-2-yl)-N^4,6-dimethylpyridine-2,4-diamine]"
